Experimental data taken from patent US8710021B2, “Inhibition of HRP-3 using modified oligonucleotides” (Bionucleon S.r.l., priority 2008, dated 2014).

Legend:
[1] = biological target: T1, HRP-3 (Homo sapiens, UniProt Q9Y3E1); assay: 3T3 migration in vitro assay: prevention of HRP-3 function by DNA duplexes; format: cell-based, mouse
T1 construct: The HRP-3 coding region was cloned into the pET30 vector using EcoRI and NdeI as restriction sites; made in house; host or cells: E. coli BL21
Experimental: All the four DNA duplexes were tested in our 3T3 migration in vitro assay to see if they were able to prevent HRP-3 function by binding its PWWP domain (FIG. 13). […] The third column on the left is the negative control.

[2] = biological target: T1, HRP-3; assay: HUVEC migration assay with Duplex 1 and HRP-3; format: cell-based; conditions: 50 nM; data not shown

T1 sequence (Q9Y3E1 whole entry): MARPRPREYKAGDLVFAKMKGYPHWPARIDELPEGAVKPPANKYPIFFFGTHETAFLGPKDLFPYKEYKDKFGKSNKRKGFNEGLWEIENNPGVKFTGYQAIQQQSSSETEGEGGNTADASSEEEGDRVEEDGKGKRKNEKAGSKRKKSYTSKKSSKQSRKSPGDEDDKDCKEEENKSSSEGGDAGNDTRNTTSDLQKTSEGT

## Duplex 1: short (15 bp) duplex DNA, the duplex of Lukasik et al., designed to target HRP3 (FIG. 12) (chain 1 TACAACACCCACAAA; chain 2 TTTGTGGGTGTTGTA; chain 1: DNA, backbone and methylation of C not given here; chain 2: DNA, backbone not given here) [reference compound]
[1]
  activity in abolishing the anti-migratory effect of HRP-3 on 3T3 cells: able to abolish the protein effect of HRP-3
[1]; 250 nM duplex with HRP-3
  migration of 3T3 cells in presence of HRP-3 and duplex: comparable with the control with FBS
[1]; 1000 nM, without HRP-3
  influence of the duplex alone on 3T3 migration compared to control with FBS: does not have any influence on the migration
[2]
  reversal of anti-migratory activity of HRP-3 on HUVEC: restore totally
